Results published in patent US20070232492A1, “Herbicidal Composition” (Ishihara Sangyo Kaisha, LTD., priority 2004, published 2007).
Like-named read-outs stand apart in the source and are kept apart here.

What was measured:
Assay type in all cases: in vivo
[1] = test system: rice (Oryza sativa var. Nihonbare); assay: Growth inhibition (phytotoxicity) of transplanted rice by compound A2 with or without compound D, application under submerged condition, visual rating 7 and 21 days after application; conditions: Compound A2 60 g/ha + Compound D 600 g/ha, applied 5 days after implantation; for Growth inhibition rate (%) (average) 7 days: 7 days after application; for Growth inhibition rate (%) (average) 21 days: 21 days after application
From the text: (§1) Growth inhibition rate (%)=0% (equivalent to the non-treated area) to 100% (complete kill)
Paddy field soil was put into a 1/500,000 hectare pot, harrowed and irrigated with a depth of 3 cm. On the next day, rice (Oryza sativa var. Nihonbare) at 2 leaf stage was implanted with a depth of 3 cm. A wettable powder of compound A2 and a wettable powder of compound D were, respectively, diluted with water and applied under submerged condition 5 days after implantation so that the active ingredients became the prescribed amounts, respectively. The state of growth of rice was visually observed 7 days and 21 days after application, and the growth inhibition rate (%) was evaluated in the same is manner as in the above Test Example 1.

[2] = test system: Japanese bulrush (Scirpus juncoides); assay: Growth inhibition of Japanese bulrush in paddy soil pots, application under submerged condition, visual rating and Colby expected value; conditions: Schoenoplectiella juncoides, soil, 456 h, 3 leaf stage, 19 days after application, Test Example 37, read-out: Growth inhibition rate (%) Observed
From the text: (§2) When the herbicidal activity in a case where two active ingredients are combined, is larger than the simple sum of the respective herbicidal activities of the two active ingredients (the expected activity), it is called a synergistic effect. The activity expected by the combination of two active ingredients can be calculated as follows (Colby S. R., “Weed”, vol. 15, p. 20-22, 1967). E=p+q−(p×q÷100) where p: growth inhibition rate when treated with x (g/a) of herbicide X,
(§3) q: growth inhibition rate when treated with y (g/a) of herbicide Y,
(§4) E: growth inhibition rate expected when treated with x (g/a) of herbicide X and y (g/a) of herbicide Y.
(§5) Namely, when the actual growth inhibition rate (observed value) is larger than the growth inhibition rate by the above calculation (expected value), the activity by the combination can be regarded as showing a synergistic effect.
as §1
(§6) Paddy field soil was put into a 1/10,000 are pot, and seeds of Japanese bulrush (Scirpus juncoides) were sown and left to stand under an irrigated condition with a water depth of 3.5 cm. When Japanese bulrush reached 2.3 to 2.6 leaf stage, a wettable powder of compound A2 and granules of compound (B7.1) were, respectively, diluted with water and applied under submerged condition so that the active ingredients became the prescribed amounts, respectively. The state of growth was visually observed 10 days after application, and evaluation and calculation were carried out in the same manner as in the above Test Example 1.
as §6, with “an emulsifiable concentrate” for “granules”, “(B3.1)” for “(B7.1)”
(§7) Paddy field soil was put into a 1/10,000 are pot, and seeds of Japanese bulrush (Scirpus juncoides) were sown and left to stand under an irrigated condition with a water depth of 3.5 cm. When Japanese bulrush reached 2 leaf stage, wettable powders of compound A2, C2 and C4 and granules of compound C6 were, respectively, diluted with water and applied under submerged condition so that the active ingredients became the prescribed amounts, respectively.
Paddy field soil was put into a 1/10,000 are pot, and seeds of Japanese bulrush (Scirpus juncoides) were sown and left to stand under an irrigated condition with a water depth of 3.5 cm. When Japanese bulrush reached 2 leaf stage, wettable powders of compound A2, C2 and C4 and granules of compound C6 were, respectively, diluted with water and applied under submerged condition so that the active ingredients became the prescribed amounts, respectively. The state of growth was visually observed 19 days after application, and the growth inhibition rate (%) evaluated in the same manner as in the above Test Example 1 (observed value) and the growth inhibition rate (%) calculated by the above-mentioned Colby method (expected value) are shown in Tables 36, 37 and 38.
as §7, with “3” for “2”, “A2” for “A2, C2”, “and” for “and C4 and granules of”, “(D2.2)” for “C6”, “respectively. […]” for “respectively.”

[3] = test system: barnyardgrass (Echinochloa oryzicola vasing); assay: Growth inhibition of barnyardgrass in paddy soil pots, foliar application with a small sprayer, visual rating and Colby expected value; conditions: Echinochloa oryzicola, 504 h, 3.0 to 3.3 leaf stage, 21 days after application, read-out: Growth inhibition rate (%) Observed
From the text: as §2, §3, §4, §5, §1
Paddy field soil was put into a 1/10,000 are pot, and seeds of barnyardgrass (Echinochloa oryzicola vasing) were sown and left to stand under an irrigated condition with a water depth of 3.5 cm. When barnyardgrass reached 3.0 to 3.3 leaf stage, a wettable powder of compound A2 and a water-based suspension of compound (B11.1) were, respectively, diluted with water in an amount of 1,000 liter/ha, followed by foliar application with a small sprayer. The state of growth was visually observed 21 days after application, and evaluation and calculation were carried out in the same manner as in the above Test Example 1.

[4] = test system: barnyardgrass (Echinochloa oryzicola vasing); assay: Growth inhibition of barnyardgrass in paddy soil pots, application under submerged condition, visual rating (observed value) and Colby expected value; conditions: Echinochloa oryzicola, soil, read-out: Growth inhibition rate (%) Observed
Summary of the method: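 Barnyardgrass (Echinochloa oryzicola vasing) seeds were sown in paddy field soil in 1/10,000 are pots and kept irrigated at a water depth of 3.5 cm. Wettable powders of the active ingredients were diluted with water and applied under submerged conditions at the prescribed amounts. Growth was visually scored from 0% (as untreated) to 100% (complete kill), and expected values were calculated with Colby's formula.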

[5] = test system: flatsedge (Cyperus serotinus); assay: Growth inhibition of flatsedge (planted tubers) in paddy soil pots, application under submerged condition, visual rating and Colby expected value; conditions: Cyperus serotinus, soil, 720 h, 2.5 to 3.0 leaf stage, 30 days after application, Test Examples 46-60, read-out: Growth inhibition rate (%) Observed
From the text: as §2, §3, §4, §5, §1
(§8) Paddy field soil was put into a 1/10,000 are pot, and tubers of flatsedge (Cyperus serotinus) were planted and left to stand under an irrigated condition with a water depth of 3.5 cm. When flatsedge reached 2.8 to 3.2 leaf stage, wettable powders of compound A2 and compound (B1.2) were, respectively, diluted with water and applied under submerged condition so that the active ingredients became the prescribed amounts, respectively. The state of growth was visually observed 29 days after application, and evaluation and calculation were carried out in the same manner as in the above Test Example 1.
Paddy field soil was put into a 1/3,000 are pot, and tubers of flatsedge (Cyperus serotinus) were planted and left to stand under an irrigated condition with a water depth of 3.5 cm. When flatsedge reached 4 leaf stage, a wettable powder of compound A2 and an emulsifiable concentrate of compound C4 were, respectively, diluted with water and applied under submerged condition so that the active ingredients became the prescribed amounts, respectively. The state of growth was visually observed 21 days after application, and the growth inhibition rate (%) evaluated in the same manner as in the above Test Example 1 (observed value) and the growth inhibition rate (%) calculated by the above-mentioned Colby method (expected value) are shown in Table 32.
as §8, with “2.5” for “2.8”, “3.0” for “3.2”, “A2, compound (D2.3)” for “A2”, “(B4.1)” for “(B1.2)”, “30” for “29”, “evaluated” for “evaluation and calculation were carried out”
as §8, with “2.5” for “2.8”, “3.0” for “3.2”, “A2, compound (D2.3)” for “A2”, “(B6.1)” for “(B1.2)”, “30” for “29”, “evaluated” for “evaluation and calculation were carried out”
Paddy field soil was put into a 1/10,000 are pot, and tubers of flatsedge (Cyperus serotinus) were planted and left to stand under an irrigated condition with a water depth of 3.5 cm. When flatsedge reached 2.5 to 3.0 leaf stage, wettable powders of compound A2, compound (D2.3) and compound (B8.1) were, respectively, diluted with water and applied under submerged condition so that the active ingredients became the prescribed amounts, respectively. […]

CCSC(=O)N1CCCCCC1 [Compound (D2.2), S-ethyl azepane-1-carbothioate]
Growth inhibition rate (%) (average) 7 days [1]: 7% | Growth inhibition rate (%) (average) 21 days [1]: 17% | inhibition at 900 g/ha ([2]; 900 g/ha): 60% | inhibition at 1800 g/ha ([2]; 1,800 g/ha): 60%

COc1cnc(OC)n2nc(NS(=O)(=O)c3c(OCC(F)F)cccc3C(F)(F)F)nc12 [Compound (B11.1), penoxsulam]
inhibition at 4.7 g/ha ([3]; 0.047 g/a): 10% | inhibition at 9.4 g/ha ([3]; 0.094 g/a): 47% | inhibition at 18.8 g/ha ([3]; 0.188 g/a): 80%

COc1cccc(N(C)C(=S)Oc2cccc(C(C)(C)C)c2)n1 [Compound (D2.3), O-3-tert-butylphenyl 6-methoxy-2-pyridyl(methyl)thiocarbamate]
Growth inhibition rate (%) (average) 7 days [1]: 3% | Growth inhibition rate (%) (average) 21 days [1]: 5% | inhibition at 188 g/ha ([4]; 504 h, 1.88 g/a, 2.8 to 3.2 leaf stage, 21 days after application, Test Examples 39-43): 0% | inhibition at 375 g/ha ([4]; 504 h, 3.75 g/a, 2.8 to 3.2 leaf stage, 21 days after application, Test Examples 39-43): 0% | inhibition at 188 g/ha ([4]; 528 h, 188 g/ha, 3 leaf stage, 22 days after application, Test Example 38): 3% | inhibition at 375 g/ha ([4]; 528 h, 375 g/ha, 3 leaf stage, 22 days after application, Test Example 38): 7% | inhibition at 600 g/ha ([5]; 6 g/a): 20%

Cc1ccc(NC(=O)NC(C)(C)c2ccccc2)cc1 [Compound (D1.1), 1-(1-methyl-1-phenylethyl)-3-p-tolylurea]
Growth inhibition rate (%) (average) 7 days [1]: 2% | Growth inhibition rate (%) (average) 21 days [1]: 10% | inhibition at 563 g/ha ([4]; 528 h, 563 g/ha, 3 leaf stage, 22 days after application, Test Example 36): 0% | inhibition at 1125 g/ha ([4]; 528 h, 1,125 g/ha, 3 leaf stage, 22 days after application, Test Example 36): 10% | inhibition at 1500 g/ha ([5]; 15 g/a): 20%

CC(C)(SC(=O)N1CCCCC1)c1ccccc1 [(D2.1), S-1-methyl-1-phenylethyl piperidine-1-carbothioate]
Growth inhibition rate (%) (average) 7 days [1]: 5% | Growth inhibition rate (%) (average) 21 days [1]: 10%
